Test results taken from patent US12227500B2, “Substituted pyrrolo[2,3-b]pyridines for suppressing toxic endoplasmic reticulum stress” (THE TRUSTEES OF COLUMBIA UNIVERSITY IN THE CITY OF NEW YORK, priority 2018, dated 2025).

Legend:
Experiment in all cases: Radiolabeled ATP kinase assay, panel of 60 kinases (Table S5)
Type in all cases: biochemical
[1] = target: T1, panel of 60 human kinases (Homo sapiens, UniProt Q07002); conditions: CDK18/cyclin Y (PCTK3); 0.1 μM; 10 μM ATP; read-out: % Enzyme Activity (relative to DSMO controls)
T1 construct: purchased Reaction Biology Corp
Method in brief: (§1)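 Compounds at two concentrations, 0.1 μM and 0.5 μM, were screened for inhibition of 60 kinases in cell-free assays read out by radiolabeled ATP.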

[2] = target: T2, panel of 60 human kinases (Homo sapiens, UniProt O94806); conditions: PKCnu/PRKD3; 0.1 μM; 10 μM ATP; read-out: % Enzyme Activity (relative to DSMO controls)
T2 construct: purchased Reaction Biology Corp
T2 sequence (O94806 1-890): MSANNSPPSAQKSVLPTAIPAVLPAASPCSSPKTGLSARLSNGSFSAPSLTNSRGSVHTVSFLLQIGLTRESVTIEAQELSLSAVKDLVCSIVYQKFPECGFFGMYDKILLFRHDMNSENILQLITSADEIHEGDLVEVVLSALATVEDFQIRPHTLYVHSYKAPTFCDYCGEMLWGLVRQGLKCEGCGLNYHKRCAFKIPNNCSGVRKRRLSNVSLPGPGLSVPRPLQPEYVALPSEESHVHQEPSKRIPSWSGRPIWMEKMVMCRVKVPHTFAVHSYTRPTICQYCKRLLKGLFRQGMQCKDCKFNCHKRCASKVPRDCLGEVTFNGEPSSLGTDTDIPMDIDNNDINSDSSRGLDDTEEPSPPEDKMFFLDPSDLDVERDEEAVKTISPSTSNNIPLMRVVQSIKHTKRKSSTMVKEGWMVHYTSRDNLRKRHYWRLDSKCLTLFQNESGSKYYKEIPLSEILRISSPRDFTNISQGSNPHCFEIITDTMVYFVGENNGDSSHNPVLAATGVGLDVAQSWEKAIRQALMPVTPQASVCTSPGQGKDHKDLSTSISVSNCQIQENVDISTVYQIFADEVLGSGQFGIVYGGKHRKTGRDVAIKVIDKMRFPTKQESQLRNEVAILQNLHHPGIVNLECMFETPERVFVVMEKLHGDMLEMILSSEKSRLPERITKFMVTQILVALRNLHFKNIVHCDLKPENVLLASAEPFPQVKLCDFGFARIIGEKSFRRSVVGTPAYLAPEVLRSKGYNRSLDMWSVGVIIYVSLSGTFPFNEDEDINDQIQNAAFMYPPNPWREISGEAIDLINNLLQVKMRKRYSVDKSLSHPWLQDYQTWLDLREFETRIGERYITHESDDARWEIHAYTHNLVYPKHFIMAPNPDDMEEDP
Method in brief: as §1

[3] = target: T3, panel of 60 human kinases (Homo sapiens, UniProt O60285); conditions: ARK5/NUAK1; 0.1 μM; 10 μM ATP; read-out: % Enzyme Activity (relative to DSMO controls)
T3 construct: purchased Reaction Biology Corp
T3 sequence (O60285 1-661): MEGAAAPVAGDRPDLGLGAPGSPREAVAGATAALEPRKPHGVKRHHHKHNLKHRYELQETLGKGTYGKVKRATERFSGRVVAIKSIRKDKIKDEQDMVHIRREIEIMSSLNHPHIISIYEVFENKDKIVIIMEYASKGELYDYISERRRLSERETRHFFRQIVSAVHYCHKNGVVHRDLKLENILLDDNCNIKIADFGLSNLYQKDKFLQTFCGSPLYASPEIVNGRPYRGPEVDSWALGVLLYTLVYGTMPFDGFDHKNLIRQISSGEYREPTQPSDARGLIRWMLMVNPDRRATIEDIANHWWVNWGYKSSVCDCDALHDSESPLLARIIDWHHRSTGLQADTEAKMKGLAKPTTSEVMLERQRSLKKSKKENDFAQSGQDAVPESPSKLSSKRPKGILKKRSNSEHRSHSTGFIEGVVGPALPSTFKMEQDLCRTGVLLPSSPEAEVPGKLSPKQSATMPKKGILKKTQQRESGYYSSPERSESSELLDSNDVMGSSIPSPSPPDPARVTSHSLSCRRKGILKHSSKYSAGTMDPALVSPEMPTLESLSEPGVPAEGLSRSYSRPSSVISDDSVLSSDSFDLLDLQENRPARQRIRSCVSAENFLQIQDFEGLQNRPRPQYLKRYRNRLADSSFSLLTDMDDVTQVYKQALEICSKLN
Method in brief: as §1

T1 sequence (Q07002 whole entry): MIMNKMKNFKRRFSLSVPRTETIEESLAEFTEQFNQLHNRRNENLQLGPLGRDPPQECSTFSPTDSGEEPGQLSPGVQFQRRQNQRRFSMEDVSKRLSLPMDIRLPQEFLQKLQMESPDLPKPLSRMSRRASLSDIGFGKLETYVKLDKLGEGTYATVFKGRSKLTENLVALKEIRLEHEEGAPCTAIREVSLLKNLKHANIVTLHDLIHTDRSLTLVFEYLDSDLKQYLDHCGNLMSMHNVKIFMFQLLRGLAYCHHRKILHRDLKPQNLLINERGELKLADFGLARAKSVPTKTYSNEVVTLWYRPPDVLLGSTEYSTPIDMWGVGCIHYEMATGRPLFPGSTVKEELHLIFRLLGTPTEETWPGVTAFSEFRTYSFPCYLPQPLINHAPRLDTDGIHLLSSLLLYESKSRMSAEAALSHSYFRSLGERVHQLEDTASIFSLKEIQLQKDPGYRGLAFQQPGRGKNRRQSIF

| Structure (SMILES) | remaining activity at 0.1 µM [1] [%] | remaining activity at 0.1 µM [2] [%] | remaining activity at 0.1 µM [3] [%] |
| --- | --- | --- | --- |
| COc1ccccc1-c1c[nH]c2ncc(-c3ccc(CN4CCN(C)CC4)cc3)cc12 [Compound 7at, 3-(2-Methoxyphenyl)-5-(4-((4-methylpiperazin-1-yl)methyl)phenyl)-1H-pyrrolo[2,3-b]pyridine] | 97.1 | 50.2 | 22.9 |
| Cc1nn(C)c(C)c1-c1c[nH]c2ncc(-c3ccc(CN4CCN(C)CC4)cc3)cc12 [Compound 7ai, 5-(4-((4-Methylpiperazin-1-yl)methyl)phenyl)-3-(1,3,5-trimethyl-1H-pyrazol-4-yl)-1H-pyrrolo[2,3-b]pyridine] | 100 | 19.2 | 21.6 |
| CN1CCN(Cc2ccc(-c3cnc4[nH]cc(-c5ccncc5)c4c3)cc2)CC1 [Compound 7n, 5-(4-((4-Methylpiperazin-1-yl)methyl)phenyl)-3-(pyridin-4-yl)-1H-pyrrolo[2,3-b]pyridine] | 24 | 42.3 | 39.3 |
| CN1CCN(Cc2ccc(-c3cnc4[nH]cc(-c5cnn(Cc6ccccc6)c5)c4c3)cc2)CC1 [Compound 7ah, 3-(1-Benzyl-1H-pyrazol-4-yl)-5-(4-((4-methylpiperazin-1-yl)methyl)phenyl)-1H-pyrrolo[2,3-b]pyridine] | 16.1 | 7.09 | 0.03 |
| CN1CCN(Cc2ccc(-c3cnc4[nH]cc(-c5ccoc5)c4c3)cc2)CC1 [Compound 7w, 3-(Furan-3-yl)-5-(4-((4-methylpiperazin-1-yl)methyl)phenyl)-1H-pyrrolo[2,3-b]pyridine] | 94.5 | 32.8 | 14.8 |
| CN1CCN(Cc2ccc(-c3cnc4[nH]cc(-c5cccc(Cl)c5)c4c3)cc2)CC1 [Compound 7ad, 3-(3-Chlorophenyl)-5-(4-((4-methylpiperazin-1-yl)methyl)phenyl)-1H-pyrrolo[2,3-b]pyridine] | 112 | 17.5 | 22.4 |
| CN1CCN(Cc2ccc(-c3cnc4[nH]cc(-c5ccc6[nH]ccc6c5)c4c3)cc2)CC1 [Compound 1, 3-(1H-Indol-5-yl)-5-(4-((4-methylpiperazin-1-yl)methyl)phenyl)-1H-pyrrolo[2,3-b]pyridine, reference compound] | 103 | 16.1 | 5.96 |
| CN1CCN(Cc2ccc(-c3cnc4[nH]cc(-c5ccc6c(c5)OCCO6)c4c3)cc2)CC1 [Compound 7d, 3-(2,3-Dihydrobenzo[b][1,4]dioxin-6-yl)-5-(4-((4-methylpiperazin-1-yl)methyl)phenyl)-1H-pyrrolo[2,3-b]pyridine] | 82.8 | 6.42 | 20.8 |
| CN1CCN(Cc2ccc(-c3cnc4[nH]cc(-c5ccccc5Cl)c4c3)cc2)CC1 [Compound 7as, 3-(2-Chlorophenyl)-5-(4-((4-methylpiperazin-1-yl)methyl)phenyl)-1H-pyrrolo[2,3-b]pyridine] | 95.5 | 18.8 | 4.44 |
